Test system: patients with relapsing multiple sclerosis
Assay: Phase 2b dose-finding study: adverse events (TEAEs, SAEs, AESIs), safety population
Conditions: for Proportion of participants with TEAEs: BTK inhibitor treatment period (12 weeks); for Adverse event: Accidental overdose / Adverse event: Alanine aminotransferase increased / Adverse event: Alopecia / Adverse event: Back pain / Adverse event: Gastroenteritis / Adverse event: Headache / Adverse event: Muscle spasticity / Adverse event: Nasopharyngitis / Adverse event: Oropharyngeal pain / Adverse event: Peripheral edema / Adverse event: Respiratory tract infection / Adverse event: Upper respiratory tract infection: 12 weeks treatment
[1] = 15 mg, 12-week treatment period
[2] = 30 mg, 12-week treatment period
[3] = 60 mg, 12-week treatment period
[4] = All (N = 130), BTK inhibitor treatment period, safety population
[5] = All Dose Groups (N = 130), Weeks 1 to 12
[6] = BTK inhibitor 5 (N = 16), Weeks 1 to 4
[7] = BTK inhibitor 5 (N = 33), BTK inhibitor treatment period, safety population
[8] = BTK inhibitor 15 (N = 16), Weeks 1 to 4
[9] = BTK inhibitor 15 (N = 32), BTK inhibitor treatment period, safety population
[10] = BTK inhibitor 30 (N = 16), Weeks 1 to 4
[11] = BTK inhibitor 30 (N = 33), BTK inhibitor treatment period, safety population
[12] = BTK inhibitor 60 (N = 16), Weeks 1 to 4
[13] = BTK inhibitor 60 (N = 32), BTK inhibitor treatment period, safety population
[14] = BTKi 5 mg (N = 16), Weeks 1 to 4
[15] = BTKi 5 mg (n = 33), Weeks 1 to 12

Structure (SMILES): C=CC(=O)N1CCC[C@@H](n2c(=O)n(-c3ccc(Oc4ccccc4)cc3)c3c(N)nccc32)C1 [the BTK inhibitor, (R)-1-(1-acryloylpiperidin-3-yl)-4-amino-3-(4-phenoxyphenyl)-1H-imidazo[4,5-c]pyridin-2(3H)-one]
- Alanine aminotransferase increased (TEAE) (5 mg, 12-week treatment period): 1
- Alopecia (TEAE) (5 mg, 12-week treatment period): 1
- Back pain (TEAE) (5 mg, 12-week treatment period): 1
- Gastroenteritis (TEAE) (5 mg, 12-week treatment period): 1
- Headache (TEAE) (5 mg, 12-week treatment period): 1
- Nasopharyngitis (TEAE) (5 mg, 12-week treatment period): 1
- Oedema peripheral (TEAE) (5 mg, 12-week treatment period): 2
- Oropharyngeal pain (TEAE) (5 mg, 12-week treatment period): 1
- Upper respiratory tract infection (TEAE) (5 mg, 12-week treatment period): 2
- Proportion of participants with TEAEs (5 mg): 57.6%
- Headache (TEAE) (5 mg, Weeks 1 to 4): 3 cases
- Nausea (TEAE) (5 mg, Weeks 1 to 4): 2 cases
- Proportion of participants who experienced TEAEs (5 mg, Weeks 1 to 4): 31.3%
- Alopecia (TEAE) [1]: 1
- Back pain (TEAE) [1]: 1
- Headache (TEAE) [1]: 3
- Respiratory tract infection (TEAE) [1]: 1
- Upper respiratory tract infection (TEAE) [1]: 2
- Proportion of participants with TEAEs (15 mg): 53.1%
- Headache (TEAE) (15 mg, Weeks 1 to 4): 2 cases
- Proportion of participants who experienced TEAEs (15 mg, Weeks 1 to 4): 18.8%
- AESIs (alanine aminotransferase increased >3×ULN) (30 mg treatment period): 1
- Alanine aminotransferase increased (TEAE) [2]: 1
- Back pain (TEAE) [2]: 2
- Headache (TEAE) [2]: 1
- Muscle spasticity (TEAE) [2]: 1
- Nasopharyngitis (TEAE) [2]: 1
- Oropharyngeal pain (TEAE) [2]: 1
- Respiratory tract infection (TEAE) [2]: 1
- Upper respiratory tract infection (TEAE) [2]: 1
- Proportion of participants with TEAEs (30 mg): 54.5%
- Nausea (TEAE) (30 mg, Weeks 1 to 4): 1 cases
- Proportion of participants who experienced TEAEs (30 mg, Weeks 1 to 4): 12.5%
- Severe TEAEs (60 mg group, all other TEAEs mild or moderate): one
- AESIs (alanine aminotransferase increased >3×ULN) (60 mg treatment period): 1
- Treatment-emergent SAEs (MS relapse) (60 mg, Cohort 1, about 8 weeks after starting treatment): One
- Accidental overdose (TEAE) [3]: 3
- Alanine aminotransferase increased (TEAE) [3]: 1
- Alopecia (TEAE) [3]: 1
- Gastroenteritis (TEAE) [3]: 2
- Headache (TEAE) [3]: 4
- Muscle spasticity (TEAE) [3]: 2
- Nasopharyngitis (TEAE) [3]: 3
- Oedema peripheral (TEAE) [3]: 2
- Oropharyngeal pain (TEAE) [3]: 1
- Respiratory tract infection (TEAE) [3]: 1
- Upper respiratory tract infection (TEAE) [3]: 1
- Proportion of participants with TEAEs (60 mg): 50.0%
- Headache (TEAE) (60 mg, Weeks 1 to 4): 1 cases
- Proportion of participants who experienced TEAEs (60 mg, Weeks 1 to 4): 31.3%
- Correlation between dose administered and number of TEAEs (5-60 mg): no direct correlation
- Tolerability (5-60 mg once daily, over the 12 weeks of treatment): well-tolerated
- AESI: Alanice aminotransferase increased [4]: 2 (1.5) n (%)
- AESI: Investigations [4]: 2 (1.5) n (%)
- Any AESI [4]: 2 (1.5) n (%)
- Participants with any TEAE [4]: 69 (53.1) n (%)
- Participants with any TEAE leading to death [4]: 0 n (%)
- Participants with any TEAE leading to study treatment discontinuation [4]: 0 n (%)
- Participants with any severe TEAE [4]: 1 (0.8) n (%)
- Participants with any treatment emergent SAE [4]: 1 (0.8) n (%)
- Participants with any treatment-related TEAE [4]: 15 (11.5) n (%)
- Participants with study discontinuation due to any TEAE [4]: 0 n (%)
- Participants with treatment emergent SAE(s): Any class [4]: 1 (0.8) n(%)
- Participants with treatment emergent SAE(s): Multiple sclerosis relapse [4]: 1 (0.8) n(%)
- Participants with treatment emergent SAE(s): NERVOUS SYSTEM DISORDERS [4]: 1 (0.8) n(%)
- Participants with any TEAE leading to death (All (N = 130), Weeks 1 to 4): 0 n (%)
- Participants with any TEAE leading to study treatment discontinuation (All (N = 130), Weeks 1 to 4): 0 n (%)
- Participants with any severe TEAE (All (N = 130), Weeks 1 to 4): 0 n (%)
- Participants with any treatment emergent SAE (All (N = 130), Weeks 1 to 4): 0 n (%)
- Participants with study discontinuation due to any TEAE (All (N = 130), Weeks 1 to 4): 0 n (%)
- Adverse event: Accidental overdose (All Dose Groups (N = 130)): 3 (2%)
- Adverse event: Alanine aminotransferase increased (All Dose Groups (N = 130)): 3 (2%)
- Adverse event: Alopecia (All Dose Groups (N = 130)): 3 (2%)
- Adverse event: Back pain (All Dose Groups (N = 130)): 4 (3%)
- Adverse event: Gastroenteritis (All Dose Groups (N = 130)): 3 (2%)
- Adverse event: Headache (All Dose Groups (N = 130)): 9 (7%)
- Adverse event: Muscle spasticity (All Dose Groups (N = 130)): 3 (2%)
- Adverse event: Nasopharyngitis (All Dose Groups (N = 130)): 5 (4%)
- Adverse event: Oropharyngeal pain (All Dose Groups (N = 130)): 3 (2%)
- Adverse event: Peripheral edema (All Dose Groups (N = 130)): 4 (3%)
- Adverse event: Respiratory tract infection (All Dose Groups (N = 130)): 3 (2%)
- Adverse event: Upper respiratory tract infection (All Dose Groups (N = 130)): 6 (5%)
- AE leading to death [5]: 0 n (%)
- AE leading to study discontinuation [5]: 0 n (%)
- Any AE (4 weeks vs. placebo 12 weeks) [5]: 70 (53.8) n (%)
- Any AE leading to study treatment discontinuation [5]: 0 n (%)
- Any treatment-related AE [5]: 17 (13.1) n (%)
- Serious AE [5]: 1 (0.8) n (%)
- AESI: Alanice aminotransferase increased [6]: 0 n (%)
- AESI: Investigations [6]: 0 n (%)
- Any AESI [6]: 0 n (%)
- AESI: Investigations [7]: 0 n (%)
- Any AESI [7]: 0 n (%)
- AESI: Alanice aminotransferase increased (BTK inhibitor 5, BTK inhibitor treatment period, safety population): 0 n (%)
- AESI: Alanice aminotransferase increased [8]: 0 n (%)
- AESI: Investigations [8]: 0 n (%)
- Any AESI [8]: 0 n (%)
- AESI: Alanice aminotransferase increased [9]: 0 n (%)
- AESI: Investigations [9]: 0 n (%)
- Any AESI [9]: 0 n (%)
- AESI: Alanice aminotransferase increased [10]: 0 n (%)
- AESI: Investigations [10]: 0 n (%)
- Any AESI [10]: 0 n (%)
- AESI: Alanice aminotransferase increased [11]: 1 (3.0) n (%)
- AESI: Investigations [11]: 1 (3.0) n (%)
- Any AESI [11]: 1 (3.0) n (%)
- AESI: Alanice aminotransferase increased [12]: 0 n (%)
- AESI: Investigations [12]: 0 n (%)
- Any AESI [12]: 0 n (%)
- AESI: Alanice aminotransferase increased [13]: 1 (3.1) n (%)
- AESI: Investigations [13]: 1 (3.1) n (%)
- Any AESI [13]: 1 (3.1) n (%)
- Participants with any TEAE (BTK inhibitor treatment period, safety population): 18 (54.5) n (%)
- AE leading to death [14]: 0
- AE leading to study discontinuation [14]: 0
- Any AE leading to study treatment discontinuation [14]: 0
- Serious AE [14]: 0
- Adverse event: Accidental overdose (BTKi 5 mg (n = 33)): 0%
- Adverse event: Alanine aminotransferase increased (BTKi 5 mg (n = 33)): 1 (3%)
- Adverse event: Alopecia (BTKi 5 mg (n = 33)): 1 (3%)
- Adverse event: Back pain (BTKi 5 mg (n = 33)): 1 (3%)
- Adverse event: Gastroenteritis (BTKi 5 mg (n = 33)): 1 (3%)
- Adverse event: Headache (BTKi 5 mg (n = 33)): 1 (3%)
- Adverse event: Muscle spasticity (BTKi 5 mg (n = 33)): 0%
- Adverse event: Nasopharyngitis (BTKi 5 mg (n = 33)): 1 (3%)
- Adverse event: Oropharyngeal pain (BTKi 5 mg (n = 33)): 1 (3%)
- Adverse event: Peripheral edema (BTKi 5 mg (n = 33)): 2 (6%)
- Adverse event: Respiratory tract infection (BTKi 5 mg (n = 33)): 0%
- Adverse event: Upper respiratory tract infection (BTKi 5 mg (n = 33)): 2 (6%)
- AE leading to death [15]: 0 n (%)
- AE leading to study discontinuation [15]: 0 n (%)
- Any AE (4 weeks vs. placebo 12 weeks) [15]: 19 (57.6) n (%)
- Any AE leading to study treatment discontinuation [15]: 0 n (%)

Source: US20260272907A1, “Therapeutic Tyrosine Kinase Inhibitors for Multiple Sclerosis” (Principia Biopharma Inc., priority 2022, published 2026)
